{"source": "patent US7138361B2", "about": "“Herbicidal heterocycles” (E. I. du Pont de Nemours and Company, priority 2000, dated 2006)", "type_in_all_cases": "in vivo", "key": {"[1]": {"tested_on": "barnyardgrass (Echinochloa crus-galli)", "test": "Test B flooded paddy test", "conditions": "Rate 1000 g/ha, scale of 0 to 100 where 0 is no effect and 100 is complete control, visually evaluated after 13 to 15 days", "how_it_was_run": "(§1)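 Plants were grown to the 2-leaf stage in flooded paddy conditions before treatment with the formulated test chemicals. After 13 to 15 days in a greenhouse, each species was visually compared with untreated controls and rated from 0 (no effect) to 100 (complete control).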"}, "[2]": {"tested_on": "duck salad (Heteranthera limosa)", "test": "Test B flooded paddy test", "conditions": "Rate 1000 g/ha, scale of 0 to 100 where 0 is no effect and 100 is complete control, visually evaluated after 13 to 15 days", "how_it_was_run": "as §1"}, "rice (Oryza saliva)": {"tested_on": "rice (Oryza saliva)", "test": "Test B flooded paddy test", "conditions": "Rate 1000 g/ha, scale of 0 to 100 where 0 is no effect and 100 is complete control, visually evaluated after 13 to 15 days", "how_it_was_run": "as §1"}, "[3]": {"tested_on": "smallflower flatsedge (Cyperus difformis)", "test": "Test B flooded paddy test", "conditions": "Rate 1000 g/ha, scale of 0 to 100 where 0 is no effect and 100 is complete control, visually evaluated after 13 to 15 days", "how_it_was_run": "as §1"}, "[4]": {"tested_on": "crabgrass (Digitaria sanguinalis)", "test": "Test C preemergence", "conditions": "for Plant response rating (0 to 100), Crabgrass: Rate 250 g/ha, visual evaluation after 12 to 14 days", "how_it_was_run": "(§2)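 Plants held in greenhouse for 12–14 days post-application are scored by eye against controls on a 0–100 control scale. Application timing: preemergence on sown seed, or postemergence on 2–18 cm plants.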"}, "[5]": {"tested_on": "goosegrass (Eleusine indica)", "test": "Test C preemergence", "conditions": "for Plant response rating (0 to 100), Goosegrass: Rate 250 g/ha, visual evaluation after 12 to 14 days", "how_it_was_run": "as §2"}, "[6]": {"tested_on": "morningglory (Ipomoea hederacea)", "test": "Test C preemergence", "conditions": "for Plant response rating (0 to 100), Morningglory: Rate 250 g/ha, visual evaluation after 12 to 14 days", "how_it_was_run": "as §2"}, "[7]": {"tested_on": "yellow nutsedge (Cyperus esculentus)", "test": "Test C preemergence", "conditions": "for Plant response rating (0 to 100), Nutsedge: Rate 250 g/ha, visual evaluation after 12 to 14 days", "how_it_was_run": "as §2"}, "Sunflower": {"tested_on": "Sunflower", "test": "Test C preemergence", "conditions": "Rate 31 g/ha, scale 0 to 100"}, "[8]": {"conditions": "Rate 62 g/ha, scale 0 to 100, 0 no effect, 100 complete control"}, "[9]": {"conditions": "preemergence, Rate 31 g/ha, scale 0 to 100"}, "[10]": {"conditions": "preemergence, Rate 125 g/ha, scale 0 to 100, 0 no effect, 100 complete control"}, "[11]": {"conditions": "Preemergence, Rate 500 g/ha, scale 0 to 100"}}}
{"smiles": "CC(C)(C)c1ccn(C2CCN(c3ccc(Cl)c(Cl)c3)C2=O)n1", "note": "(stereo not drawn) [Compound 34]", "values": [{"measurement": "Plant response rating, Barnyardgrass", "setting": "[1]", "result": 100}, {"measurement": "Plant response rating, Ducksalad", "setting": "[2]", "result": 100}, {"measurement": "Plant response rating, Rice", "setting": "rice (Oryza saliva)", "result": 30}, {"measurement": "Plant response rating, Flatsedge", "setting": "[3]", "result": 100}, {"measurement": "Plant response rating, Crabgrass", "setting": "[4]; [8]", "result": 60}, {"measurement": "Plant response rating, Crabgrass", "setting": "[4]; [9]", "result": 0}, {"measurement": "Plant response rating (0 to 100), Crabgrass", "setting": "[4]; preemergence", "result": 100}, {"measurement": "Plant response rating, Crabgrass", "setting": "[4]; [10]", "result": 70}, {"measurement": "Plant response rating, Goosegrass", "setting": "[5]; [8]", "result": 80}, {"measurement": "Plant response rating, Goosegrass", "setting": "[5]; [9]", "result": 20}, {"measurement": "Plant response rating (0 to 100), Goosegrass", "setting": "[5]; preemergence", "result": 100}, {"measurement": "Plant response rating, Goosegrass", "setting": "[5]; [10]", "result": 80}, {"measurement": "Plant response rating, Morningglory", "setting": "[6]; [8]", "result": 0}, {"measurement": "Plant response rating, Morningglory", "setting": "[6]; [9]", "result": 0}, {"measurement": "Plant response rating (0 to 100), Morningglory", "setting": "[6]; preemergence", "result": 0}, {"measurement": "Plant response rating, Morningglory", "setting": "[6]; [10]", "result": 0}, {"measurement": "Plant response rating, Nutsedge", "setting": "[7]; [8]", "result": 0}, {"measurement": "Plant response rating, Nutsedge", "setting": "[7]; [9]", "result": 0}, {"measurement": "Plant response rating (0 to 100), Nutsedge", "setting": "[7]; preemergence", "result": 0}, {"measurement": "Plant response rating, Nutsedge", "setting": "[7]; [10]", "result": 0}, {"measurement": "Plant response rating, Sunflower", "setting": "Sunflower", "result": 0}]}
{"smiles": "O=C1C(n2ccc(C3CC3)n2)CCN1c1cccc(C(F)(F)F)c1", "note": "(stereo not drawn) [Compound 8]", "values": [{"measurement": "Plant response rating, Barnyardgrass", "setting": "[1]", "result": 100}, {"measurement": "Plant response rating, Ducksalad", "setting": "[2]", "result": 80}, {"measurement": "Plant response rating, Rice", "setting": "rice (Oryza saliva)", "result": 90}, {"measurement": "Plant response rating, Flatsedge", "setting": "[3]", "result": 100}, {"measurement": "Plant response rating, Crabgrass", "setting": "[4]; [11]", "result": 100}, {"measurement": "Plant response rating, Crabgrass", "setting": "[4]; [8]", "result": 70}, {"measurement": "Plant response rating (0 to 100), Crabgrass", "setting": "[4]; preemergence", "result": 90}, {"measurement": "Plant response rating, Crabgrass", "setting": "[4]; [10]", "result": 70}, {"measurement": "Plant response rating, Goosegrass", "setting": "[5]; [11]", "result": 100}, {"measurement": "Plant response rating, Goosegrass", "setting": "[5]; [8]", "result": 0}, {"measurement": "Plant response rating (0 to 100), Goosegrass", "setting": "[5]; preemergence", "result": 90}, {"measurement": "Plant response rating, Goosegrass", "setting": "[5]; [10]", "result": 20}, {"measurement": "Plant response rating, Morningglory", "setting": "[6]; [11]", "result": 30}, {"measurement": "Plant response rating, Morningglory", "setting": "[6]; [8]", "result": 20}, {"measurement": "Plant response rating (0 to 100), Morningglory", "setting": "[6]; preemergence", "result": 30}, {"measurement": "Plant response rating, Morningglory", "setting": "[6]; [10]", "result": 30}, {"measurement": "Plant response rating, Nutsedge", "setting": "[7]; [11]", "result": 0}, {"measurement": "Plant response rating, Nutsedge", "setting": "[7]; [8]", "result": 0}, {"measurement": "Plant response rating (0 to 100), Nutsedge", "setting": "[7]; preemergence", "result": 0}, {"measurement": "Plant response rating, Nutsedge", "setting": "[7]; [10]", "result": 0}]}
{"smiles": "CC(C)(C)c1ccn(C2CCN(c3ccc(Cl)c(Br)c3)C2=O)n1", "note": "(stereo not drawn) [Compound 56]", "values": [{"measurement": "Plant response rating, Barnyardgrass", "setting": "[1]", "result": 80}, {"measurement": "Plant response rating, Ducksalad", "setting": "[2]", "result": 20}, {"measurement": "Plant response rating, Rice", "setting": "rice (Oryza saliva)", "result": 0}, {"measurement": "Plant response rating, Flatsedge", "setting": "[3]", "result": 90}, {"measurement": "Plant response rating, Crabgrass", "setting": "[4]; [11]", "result": 100}, {"measurement": "Plant response rating, Crabgrass", "setting": "[4]; [8]", "result": 30}, {"measurement": "Plant response rating (0 to 100), Crabgrass", "setting": "[4]; preemergence", "result": 90}, {"measurement": "Plant response rating, Crabgrass", "setting": "[4]; [10]", "result": 30}, {"measurement": "Plant response rating, Goosegrass", "setting": "[5]; [11]", "result": 100}, {"measurement": "Plant response rating, Goosegrass", "setting": "[5]; [8]", "result": 60}, {"measurement": "Plant response rating (0 to 100), Goosegrass", "setting": "[5]; preemergence", "result": 90}, {"measurement": "Plant response rating, Goosegrass", "setting": "[5]; [10]", "result": 80}, {"measurement": "Plant response rating, Morningglory", "setting": "[6]; [11]", "result": 0}, {"measurement": "Plant response rating, Morningglory", "setting": "[6]; [8]", "result": 0}, {"measurement": "Plant response rating (0 to 100), Morningglory", "setting": "[6]; preemergence", "result": 0}, {"measurement": "Plant response rating, Morningglory", "setting": "[6]; [10]", "result": 0}, {"measurement": "Plant response rating, Nutsedge", "setting": "[7]; [11]", "result": 0}, {"measurement": "Plant response rating, Nutsedge", "setting": "[7]; [8]", "result": 0}, {"measurement": "Plant response rating (0 to 100), Nutsedge", "setting": "[7]; preemergence", "result": 0}, {"measurement": "Plant response rating, Nutsedge", "setting": "[7]; [10]", "result": 0}]}
{"smiles": "CC(C)(C)c1ccn(C2CCN(c3cccc(Br)c3)C2=O)n1", "note": "(stereo not drawn) [Compound 33]", "values": [{"measurement": "Plant response rating, Barnyardgrass", "setting": "[1]", "result": 0}, {"measurement": "Plant response rating, Ducksalad", "setting": "[2]", "result": 0}, {"measurement": "Plant response rating, Rice", "setting": "rice (Oryza saliva)", "result": 0}, {"measurement": "Plant response rating, Flatsedge", "setting": "[3]", "result": 0}, {"measurement": "Plant response rating, Crabgrass", "setting": "[4]; [11]", "result": 100}, {"measurement": "Plant response rating, Crabgrass", "setting": "[4]; [8]", "result": 80}, {"measurement": "Plant response rating (0 to 100), Crabgrass", "setting": "[4]; preemergence", "result": 100}, {"measurement": "Plant response rating, Crabgrass", "setting": "[4]; [10]", "result": 100}, {"measurement": "Plant response rating, Goosegrass", "setting": "[5]; [11]", "result": 100}, {"measurement": "Plant response rating, Goosegrass", "setting": "[5]; [8]", "result": 80}, {"measurement": "Plant response rating (0 to 100), Goosegrass", "setting": "[5]; preemergence", "result": 100}, {"measurement": "Plant response rating, Goosegrass", "setting": "[5]; [10]", "result": 100}, {"measurement": "Plant response rating, Morningglory", "setting": "[6]; [11]", "result": 0}, {"measurement": "Plant response rating, Morningglory", "setting": "[6]; [8]", "result": 0}, {"measurement": "Plant response rating (0 to 100), Morningglory", "setting": "[6]; preemergence", "result": 0}, {"measurement": "Plant response rating, Morningglory", "setting": "[6]; [10]", "result": 0}, {"measurement": "Plant response rating, Nutsedge", "setting": "[7]; [11]", "result": 0}, {"measurement": "Plant response rating, Nutsedge", "setting": "[7]; [8]", "result": 0}, {"measurement": "Plant response rating (0 to 100), Nutsedge", "setting": "[7]; preemergence", "result": 0}, {"measurement": "Plant response rating, Nutsedge", "setting": "[7]; [10]", "result": 0}]}
